# “And” between values parts separate entries of the source, which are not always exact repeats. Identical values can stand only once. “Also recorded” adds a separate entry of the source. Like-named read-outs stand apart in the source and are kept apart here.
# Experiments:
# [1] = cited from earlier work
# [2] = pKaH+ determination by Lambert's method with reference bases (1H NMR); conditions: for pKaH+: Lambert's method
# Protocol: The pKaH^+ values shown were determined in CD3CN using Lambert’s method[8] with appropriate reference bases (see Supporting Information, Section 2.0).
# [3] = Base-mediated elimination of HBr from 4-bromophenethyl bromide: deprotonation kinetics and protonation vs alkylation; conditions: for Half-life, t1/2: calculated based on second-order kinetics; for half-life (h) (25 °C) / half-life (h) (80 °C): deprotonation of 4-bromophenethyl bromide
# [4] = Hydrolytic decomposition in 1 M NaOD in 9:1 v/v CD3OD/D2O
# [5] = hydrolytic decomposition, 1 M NaOD, 9:1 CD3OD/D2O, 25 °C
# [6] = hydrolytic decomposition, 1 M NaOD, 9:1 CD3OD/D2O, 80 °C
# [7] = 80 °C, 1 M NaOD in 9:1 d4-methanol:D2O, pseudo-first-order
# [8] = 25 °C, 1 M NaOD in 9:1 d4-methanol:D2O, pseudo-first-order
# [9] = Table 1, conventional superbases
# [10] = Table S1, conventional superbases
structure (smiles),measurement,setting,value
CN(C)c1cccc2cccc(N(C)C)c12 [proton-sponge],pKaH+,[1]; in MeCN,18.6
C1COCCOCCOCCOCCOCCOCCOCCO1.CC(C)(C)c1cc(CNCc2cc(C(F)(F)F)cc(C(F)(F)F)c2)cc(C(C)(C)C)c1 [24C8⊂4],pKaH+,[2]; in CD3CN,22.9 ± 0.3 and 22.9 ± 0.1
C1COCCOCCOCCOCCOCCOCCO1.Cc1cc(C)cc(CNCc2cc(C)cc(C)c2)c1 [21C7⊂6],"Half-life, t1/2",[3]; 25 °C,0.00625 days
same,half-life (h) (25 °C),[3]; 25 °C,0.15 h
same,rate of deprotonation of 4-bromophenethyl bromide relative to the conventional organic superbases,[3]; in words,several thousand times faster
same,hydrolytic stability (in words),"[4]; 1 M NaOD, 9:1 CD3OD/D2O",stable; also recorded: excellent chemical stability
same,half-life (25 °C),[4]; [5],>170 h
same,half-life (80 °C),[4]; [6],>170 h
same,pKaH+ (MeCN),"[2]; Table 1, rotaxanes",32.2
same,basicity higher than either non-interlocked component,[2]; in CD3CN,~13 orders of magnitude
same,pKaH+,[2]; in CD3CN,32.2 ± 0.6
"NCCCCN [1,4-diaminobutane]",pKaH+,"[1]; in CD3CN, reference base",20.1
C1COCCOCCOCCOCCOCCOCCOCCO1.CC(C)(C)c1cc(CNCc2cc(C(C)(C)C)cc(C(C)(C)C)c2)cc(C(C)(C)C)c1 [24C8⊂2],"Half-life, t1/2",[3]; 80 °C,10.8 days
same,half-life (h) (25 °C),[3]; 25 °C,>5000 h
same,half-life (h) (80 °C),[3]; 80 °C,260 h
same,rate of substrate deprotonation relative to the other rotaxanes in the series,[3]; in words,much more slowly
same,hydrolytic stability (in words),"[4]; 1 M NaOD, 9:1 CD3OD/D2O",decompose quickly
same,half-life (25 °C),[4]; [5],6 h
same,pKaH+ (MeCN),"[2]; Table 1, rotaxanes",26.3
same,pKaH+,[2]; in CD3CN,26.3 ± 0.22 and 26.3 ± 0.2
C1COCCOCCOCCOCCOCCOCCO1.Cc1cc(C)cc(C[NH2+]Cc2cc(C)cc(C)c2)c1.F[P-](F)(F)(F)(F)F [21C7⊂6•HPF6],Half-life,[4]; [7],> 170 h
same,pKaH+ (MeCN),"[2]; Table S2, rotaxane HPF6 salts",32.2
C1COCCOCCOCCOCCOCCOCCOCCO1.FC(F)(F)c1cc(CNCc2cc(C(F)(F)F)cc(C(F)(F)F)c2)cc(C(F)(F)F)c1 [24C8⊂3],"Half-life, t1/2",[3]; 25 °C,7.317 days
same,half-life (h) (25 °C),[3]; 25 °C,176 h
same,hydrolytic stability (in words),"[4]; 1 M NaOD, 9:1 CD3OD/D2O",stable
same,half-life (25 °C),[4]; [5],>170 h
same,half-life (80 °C),[4]; [6],>170 h
same,pKaH+ (MeCN),"[2]; Table 1, rotaxanes",20.5
same,pKaH+,[2]; in CD3CN,20.5 ± 0.1
C1COCCOCCOCCOCCOCCOCCO1.FC(F)(F)c1cc(CNCc2cc(C(F)(F)F)cc(C(F)(F)F)c2)cc(C(F)(F)F)c1 [21C7⊂3],"Half-life, t1/2",[3]; 80 °C,169.69 days
same,half-life (h) (25 °C),[3]; 25 °C,>5000 h
same,half-life (h) (80 °C),[3]; 80 °C,4073 h
same,rate of substrate deprotonation relative to the other rotaxanes in the series,[3]; in words,much more slowly
same,hydrolytic stability (in words),"[4]; 1 M NaOD, 9:1 CD3OD/D2O",consumed completely within a matter of minutes; also recorded: decompose quickly
same,half-life (25 °C),[4]; [5],<0.083 h
same,pKaH+ (MeCN),"[2]; Table 1, rotaxanes",24.9
same,pKaH+,[2]; in CD3CN,24.9 ± 0.1
same,increase in the basicity of the secondary amine upon encapsulation,"[2]; rotaxane vs thread 3, from pKaH+ values",10^13 fold
C1COCCOCCOCCOCCOCCOCCO1.FC(F)(F)c1cc(C[NH2+]Cc2cc(C(F)(F)F)cc(C(F)(F)F)c2)cc(C(F)(F)F)c1.F[P-](F)(F)(F)(F)F [21C7⊂3•HPF6],Half-life,[4]; [8],< 0.083 h
same,pKaH+ (MeCN),"[2]; Table S2, rotaxane HPF6 salts",24.9
F[P-](F)(F)(F)(F)F.O=C(CC[NH2+]Cc1cc(C(F)(F)F)cc(C(F)(F)F)c1)Nc1cc(C(F)(F)F)cc(C(F)(F)F)c1.c1ccc2c(c1)OCCOCCOCCOc1ccccc1OCCOCCOCCO2 [DB24C8⊂8•HPF6],Half-life,[4]; [7],> 170 h
same,pKaH+ (MeCN),"[2]; Table S2, rotaxane HPF6 salts",20.7
C1COCCOCCOCCOCCOCCOCCOCCO1.FC(F)(F)c1cc(C[NH2+]Cc2cc(C(F)(F)F)cc(C(F)(F)F)c2)cc(C(F)(F)F)c1.F[P-](F)(F)(F)(F)F [24C8⊂3•HPF6],Half-life,[4]; [7],> 170 h
same,pKaH+ (MeCN),"[2]; Table S2, rotaxane HPF6 salts",20.5
C1COCCOCCOCCOCCOCCOCCOCCO1.COc1c(C(C)(C)C)cc(CNCc2cc(C(F)(F)F)cc(C(F)(F)F)c2)cc1C(C)(C)C [24C8⊂5],pKaH+,[2]; in CD3CN,23.2 ± 0.3 and 23.2 ± 0.2
C1COCCOCCOCCOCCOCCOCCOCCO1.CC(C)(C)c1cc(C[NH2+]Cc2cc(C(C)(C)C)cc(C(C)(C)C)c2)cc(C(C)(C)C)c1.F[P-](F)(F)(F)(F)F [24C8⊂2•HPF6],Half-life,[4]; [8],6.2 h
same,pKaH+ (MeCN),"[2]; Table S2, rotaxane HPF6 salts",26.3
"C1CCC2=NCCCN2CC1 [DBU, 1,8-diazabicyclo(5.4.0)undec-7-ene, reference compound]","Half-life, t1/2",[3]; 25 °C,26.47 days
same,half-life (h) (25 °C),[3]; 25 °C,635 h
same,Half-life,"[4]; buffer, Half-life, 25 °C, 1 M NaOD in 9:1 d4-methanol:D2O, pseudo-first-order",10.9 h
same,Half-life,"[4]; buffer, half-life (25 °C), hydrolytic decomposition, 1 M NaOD, 9:1 CD3OD/D2O, 25 °C",11 h
same,pKaH+ (MeCN),[1]; [9],24.3[1]
same,pKaH+ (MeCN),[1]; [10],24.3
same,pKaH+ (MeCN),"[1]; Table S2, reference superbases",24.3
"CN(C)P(=NC(C)(C)C)(N(C)C)N(C)C [P1-^tBu, tert-butylimino-tris(dimethylamino)phosphorane, reference compound]","Half-life, t1/2",[3]; 25 °C,17.45 days
same,half-life (h) (25 °C),[3]; 25 °C,419 h
same,Half-life,[4]; [7],> 170 h
same,half-life (25 °C),[4]; [5],>170 h
same,half-life (80 °C),[4]; [6],>170 h
same,pKaH+ (MeCN),[1]; [9],27.0[1]
same,pKaH+ (MeCN),[1]; [10],27
same,pKaH+ (MeCN),"[1]; Table S2, reference superbases",27.0
FC(F)(F)c1cc(C[NH2+]Cc2cc(C(F)(F)F)cc(C(F)(F)F)c2)cc(C(F)(F)F)c1.F[P-](F)(F)(F)(F)F.c1ccc2c(c1)OCCOCCOCCOc1ccccc1OCCOCCOCCO2 [DB24C8⊂3•HPF6],Half-life,[4]; [7],> 170 h
same,pKaH+ (MeCN),"[2]; Table S2, rotaxane HPF6 salts",20.3

# Reference: paper PMC10119927, “Compact Rotaxane Superbases” (Journal of the American Chemical Society, 2023)
